Peptide text beside a SMILES is read from it. * marks the point of attachment. NOTA = O=C(O)CN1CCN(CC(=O)O)CCN(CC(=O)*)CC1; AEEEA = NCCOCCOCCOCC(=O)O
Key:
[1] = Adult, PET/CT; cited from earlier work
Text: The kidney received the highest doses (9.83 × 10^−2 ± 2.10 × 10^−2 mSv/MBq).

[2] = [^18F]F-FDG PET/CT imaging in cancer patients; type: in vivo, human
Method: The program content was explained to all healthy volunteers and cancer patients, and written informed consent was obtained. Whole-body dynamic imaging was conducted for 60 min using a PET/CT 690 Elite scanner (GE Discovery) immediately after intravenous injection of [^68Ga]Ga-HN11-1 (3.1 to 4.9 MBq/kg). A static body scan was performed 15 to 45 min after injection. All cancer patients underwent [^18F]F-FDG and [^68Ga]Ga-HN11-1 PET/CT imaging within 5 d. Two nuclear medicine physicians reconstructed and reviewed the images on GE aw 4.6 workstations and reached a consensus. They delineated the ROIs and measured the values of maximum standard uptake and average standard uptake (SUVmax and SUVmean). The biological distribution of [^68Ga]Ga-HN11-1 in healthy volunteers was determined by SUVmax and SUVmean. The OLINDA/EXM software (version 1.0, Hermes Medical Solutions AB) was used to estimate the human radiation dose based on the SUVmean of each organ.

A549-PD-L2 cell lines = experiment: Cell uptake assay; type: cell-based; conditions: A549-PD-L2 cells, n = 5; for cell uptake rate: mean ± SD
Method: Cell uptake assays were conducted to measure the uptake of [^68Ga]Ga-HN11-1 and [^68Ga]Ga-HN11-2 in A549 and A459-PD-L2 cell lines following incubation periods of 15, 30, 60, and 90 min. Blocking studies were performed by coincubating cells with an excess of precursor (HN11-1 / HN11-2), and then the cell uptakes of [^68Ga]Ga-HN11-1 and [^68Ga]Ga-HN11-2 were performed in A459-PD-L2 cell lines after 60 min of incubation. The experiment details are provided in the SI.
All tumor cells (1 × 10^6 per well) were seeded in two 24 - well plates, incubated for 24 h and then added with […] of [^68Ga]Ga-HN11-1 or [^68Ga]Ga-HN11-2 per well. After 15, 30, 60 and 90 min of uptake, the cells were separated from the medium, washed with 500 μL of cold PBS for three times and dissolved with 1 M NaOH. At different time points, these cells were collected and counted by using a γ-counter (WIZARD 2480, Pekin Elmer). For in vitro blocking experiments, cells were co-incubated with 10 μg of cold HN11-1 or HN11-2 precursor. After incubation, the cells were washed, collected and measured with a γ-counter, either. The IC50 values of [^68Ga]Ga-HN11-1 or [^68Ga]Ga-HN11-2 were determined using GraphPad Prism 8.0.2 software, respectively.

[3] = system: A549-PD-L2 tumor xenograft models; experiment: Dynamic micro-PET imaging in A549-PD-L2 xenografts; type: in vivo, BALB/C nude mice; conditions: n = 3
Method: Micro-PET imaging was conducted using an Inveon PET scanner (Siemens, Germany). Dynamic PET examine were acquired over the first 60 min following the simultaneous injection of 7.4 to 9.25 MBq (200 to 250 μCi) of [^68Ga]Ga-HN11-1 and [^68Ga]Ga-HN11-2. After reconstructing the images and delineating the regions of interest (ROIs), time-radioactivity curves were plotted to obtain the Tumor/Muscle (T/M) ratios. %ID/g represents the percentage of the injected dose of the radiotracer that accumulates in a specific tissue per gram of tissue weight. For the biodistribution study, the xenograft models received an intravenous injection of 3.7 to 5.5 MBq (100 to 150 μCi) of [^68Ga]Ga-HN11-1. After the designated period (10, 30, 60, and 90 min), the mice were euthanized, and important tissues and organs were dissected and collected. The samples were counted using the γ-counter for determining the %ID/g, presented as mean ± standard deviation (SD).
A549 cell lines were provided by the China Center for Type Culture Collection (CCTCC) and cultured in RPMI-1640 medium supplemented with 10 % fetal bovine serum and 100 U/mL penicillin-streptomycin. The lentivirus system was implemented to introduce PD-L2 (PDCD1LG2) over-expressed cDNA into the A549 cells. The viral vectors were produced in 293T cells and co-transfected with the psAX2, pMD2G and PD-L2 plasmids. A549 cells transduced with the vectors were selectively grown in 1.6 μg/mL puromycin. Transfection efficiency was identified by WB and real-time quantitative PCR. All the cells were cultured in an incubator at 37° C with 5 % CO2 atmosphere. A549 and A549-PD-L2 cells (5 × 10^6, 200 μL)were subcutaneously implanted into the right shoulder of BALB/C nude mice (male, 4-6 weeks), respectively. When the tumors reached to 5 - 8 mm in diameter, the mice were subjected to in vivo and ex vivo studies. All the mice were purchased from the Laboratory Animal Center of Central South University.

[4] = Partition coefficient (log P), 1-octanol/PBS; type: physicochemical; conditions: shake-flask 3 mL 1-octanol / 3 mL PBS pH 7.4, vortex 10 min, centrifugation 10,000 rpm 10 min, γ-counter, mean ± SD, n = 5
Method: The partition coefficients were assessed using the method described previously. [^68Ga]Ga-HN11-1 and [^68Ga]Ga-HN11-2 was respectively introduced into a mixture comprising 3 mL of 1-octanol and 3 mL of phosphate-buffered saline (PBS) with a pH of 7.4. Following vortexing for 10 minutes and subsequent centrifugation at 10,000 rpm for 10 minutes, samples were taken from both layers and counted using a γ-counter. The log P was determined using the formula: log P = log([M]oct/[M]aq). All measurements were conducted using 5 independent samples and are presented as mean ± standard deviation (SD).

[5] = system: A549-PD-L2 xenograft models; experiment: Static PET/CT imaging with blocking; type: in vivo, BALB/C nude mice; conditions: 60 min, pretreatment i.v. with excess HN11-1 / HN11-2 (10 mg/kg), n = 3
Method: (§1) The static PET/CT imaging in A549 and A549-PD-L2 xenograft models after injection of 5.55 to 7.4 MBq (150 to 200 μCi) of [^68Ga]Ga-HN11-1 or [^68Ga]Ga-HN11-2 were acquired at 60 min. In the [^68Ga]Ga-HN11-1 + block or [^68Ga]Ga-HN11-2 + block groups, the xenograft models underwent pretreatment via intravenous injection of HN11-1 or HN-2 (10 mg/kg) before PET/CT imaging. Then, ROIs were delineated for each group. After imaging, tumor tissues from both the A549 and A459-PD-L2 xenograft tumors were extracted, and the PD-L2 expression was tested by IHC. For the pharmacokinetics study, healthy BALB/C mouse received an intravenous injection of 5.55 MBq (150 μCi) of [^68Ga]Ga-HN11-1 and [^68Ga]Ga-HN11-2. Measure the activity of blood samples (%ID/g, mean ± SD) at the corresponding time points, and the time-activity curve was plotted. Subsequently, pharmacokinetic parameters were tested using the noncompartmental model in Phoenix WinNonlin 8.1 software (Certara, USA).

[6] = Pharmacokinetics in blood; type: in vivo; conditions: healthy BALB/C mouse, i.v. 5.55 MBq, noncompartmental model, Phoenix WinNonlin 8.1
Method: as §1

[7] = In vitro stability in saline (radio-HPLC); type: physicochemical; conditions: room temperature, over 4 h (0.5, 1, 2, 4 h), 3.74 MBq
Method: (§2) The in vitro stability of [^68Ga]Ga-HN11-1 and [^68Ga]Ga-HN11-2 (3.74 MBq) in saline and serum was tested by radio-HPLC analysis of its radiochemical purity after incubation at room temperature for 0.5 , 1 , 2 and 4 h.

[8] = In vitro stability in serum (radio-HPLC); type: in vitro ADME; conditions: room temperature, over 4 h (0.5, 1, 2, 4 h), 3.74 MBq, read-out: in vitro stability in serum (radiochemical purity)
Method: as §2

patients with NSCLC = experiment: Clinical response to anti-PD-1 therapy in NSCLC patients; type: in vivo, human
Text: We evaluated the clinical relevance between the expression of PD-L2 in tumor tissues and anti-PD-1 immunotherapy (pembrolizumab) in 49 patients with NSCLC, as assessed by PD-L2 IHC score data from these patients. The median age was 60 years (range, 41 to 86 y), male (81.6%). About 57.1% of the patients had distant metastasis (M1 stage), and 42.9% of the patients had received ≥2 other treatment before anti-PD-1 therapy (Table). […] patients were classified as PD-L1-positive expression, […] as PD-L2-positive expression, 21 (42.9%) as PD-L1 negative, and 27 (55.1%) as PD-L2 negative (Fig. 1A). […] (Fig. 1A). […] (Fig. 1A). In the 49 patients, PD-L2-positive was identified as a statistically significant predictor of better PFS (P < 0.05) (Fig. 1B), but it was not a statistically significant predictor of relapse-free survival (Fig. 1C).

OC[C@H]1O[C@@H](O)[C@H]([18F])[C@@H](O)[C@@H]1O [[^18F]F-FDG]
effective dose [1]: 1.9 × 10^−2 mSv/MBq
FDG SUVmax ([2]; patient 1, NSCLC, lung): 15.5
FDG SUVmax ([2]; patient 2, NSCLC, lung): 25.9
FDG SUVmax ([2]; patient 3, rHNSCC, buccal): 13.7
FDG SUVmax ([2]; patient 4, rHNSCC, buccal): 4.0
FDG SUVmax ([2]; patient 5, mHNSCC, tongue): 4.0
FDG SUVmax ([2]; patient 6, mHNSCC, laryngeal): 3.7

CC[C@H](C)[C@H](NC(=O)[C@H](CCCNC(=N)N)NC(=O)[C@H](C)NC(=O)[C@H](CCCCN)NC(=O)[C@@H](NC(=O)[C@H](CCCNC(=N)N)NC(=O)[C@H](CCCNC(=N)N)NC(=O)[C@@H](NC(=O)[C@H](Cc1c[nH]cn1)NC(=O)COCCOCCOCCNC(=O)CN1CCN(CC(=O)O)CCN(CC(=O)O)CC1)C(C)C)[C@@H](C)O)C(=O)N[C@@H](CCCNC(=N)N)C(=O)N[C@@H](CC(N)=O)C(=O)O [[^68Ga]Ga-HN11-2, metal not drawn] ({NOTA-AEEEA}-HVRRTKARIRN-OH)
cell uptake rate (A549-PD-L2 cell lines; 30 min incubation, γ-counter): 1.55 ± 0.08%
cell uptake, block group (A549-PD-L2 cell lines; 60 min, with excess (10 μg) of cold HN11-1 / HN11-2 precursor): 0.61 ± 0.03%
cell uptake rate (A549-PD-L2 cell lines; 60 min incubation): 2.47 ± 0.13%
tumor uptake ([3]; 10 min after injection): 1.71 ± 0.14 %ID/g
tumor uptake ([3]; 20 min after injection): 2.17 ± 0.12 %ID/g
tumor uptake ([3]; 30 min after injection): 2.29 ± 0.17 %ID/g
tumor uptake ([3]; 40 min after injection): 2.10 ± 0.03 %ID/g
tumor uptake ([3]; 50 min after injection): 1.97 ± 0.07 %ID/g
tumor uptake ([3]; 60 min after injection): 1.82 ± 0.06 %ID/g
logD [4]: -0.27 ± 0.0018
tumor uptake after blocking [5]: 0.82 ± 0.04 %ID/g
half-life in blood [6]: 22.66 min
in vitro stability in saline (radiochemical purity) [7]: > 95%
remaining at 4 h [8]: > 95%

pembrolizumab: anti-PD-1 immunotherapy
response rate (patients with NSCLC; PD-L1-positive alone, 95% CI 63.4 to 93.8): 78.6%
objective response rate (patients with NSCLC; PD-L1-positive but PD-L2-negative, 95% CI 56.3 to 96.6): 76.5%
objective response rate (patients with NSCLC; PD-L1-positive while PD-L2 unknown, 95% CI 63.4 to 93.8): 78.6%
response rate (patients with NSCLC; PD-L2-positive alone, 95% CI 59.8 to 94.8): 77.3%
objective response rate (patients with NSCLC; both PD-L1- and PD-L2-positive, 95% CI 59.0 to 100.0): 81.8%
response rate (patients with NSCLC; both PD-L1 and PD-L2 negative group, 95% CI 29.6 to 90.4): 60.0%
